Results: patent publication US20260200903A1, “PHARMACEUTICAL COMPOSITION FOR AMELIORATING MALIGNANT DISEASES” (KINKI UNIVERSITY, priority 2020, published 2026)

Key:
Assay type in all cases: cell-based
[1] = tested on: RPMI8226/B cells (bortezomib-resistant myeloma cell line); assay: Cell death inducing effect on RPMI8226/B cells, trypan blue staining; settings: RPMI8226/B (myeloma; bortezomib resistance), cell viability
Method: (§1) RPMI8226/B cells (bortezomib-resistant myeloma cell line) were cultured under 5% CO2 at 37° C. The culture medium used RPMI-1640 medium with 100 μg/mL penicillin, 100 U/mL streptomycin and fetal bovine serum. RPMI8226/B cells were seeded into 96-well plates and incubated with each concentration of the compounds was added, and cell viability was determined by the trypan blue staining.
(§2) For controls, only 0.5% DMSO (diluted in PBS) used to dissolve the compounds was added. For each concentration, each bar line is indicated by an arrow with the sign “n, a, 1, 2, 3, 4, 5, 6, 7, 8, 9, 10, 11, 12” from left to right. The “1, 3, 5, 7, 9, 11” are omitted from the graph, but the sign “1” shall be indicated by an arrow between the signs “a” and “2”, the sign “3” between the signs “2” and “4”, and other odd numbers shall likewise be indicated by arrows between even numbers before and after.
(§3) The sign “n” is the norathyriol (formula (n)) administration group, the sign “a” is the mangiferin 8a (formula (a)) administration group, the sign “1” is the yk-7 (formula (1)) administration group, the sign “2” is the yk-8-1 (formula (2)) administration group, the sign “3” is the yk-8-3 (formula (3)) administration group, the sign “4” is the M7 (formula (4)) administration group, the sign “5” is the M9 (formula (5)) administration group, the sign “6” is the M11 (formula (6)) administration group, the sign “7” is the M12 (formula (7)) administration group, the sign “8” is the M14 (formula (8)) administration group, the sign “9” is the M15 (formula (9)) administration group, the sign “10” is the M16 (formula (10)) administration group, the sign “11” is the M18 (formula (11)) administration group, the sign “12” is the M19 (formula (12)) administration group, respectively. The IC50 values for each compound is also listed in the upper right corner of the figure.

[2] = tested on: Raji cells (burkitt lymphoma cell line); assay: Cell death inducing effect on Raji cells, trypan blue staining; settings: Raji (Burkkit lymphoma), cell viability
Method: as §1, with “Raji” for “RPMI8226/B”, “(burkitt lymphoma” for “(bortezomib-resistant myeloma”
as §2, §3

CD20 = CD20 expression in L363 cells, flow cytometry; settings: 10 days, concentration lower than the IC50 (0.005-50 μM), compared to the positive control
Method: As a control, compounds untreated L363 cells were seeded in 75 cm^2 flasks and incubated for 10 days at 37° C. and 5% CO2. L363 cells were seeded into 75 cm^2 flasks and pre-cultured for 4 h. After incubation, L363 cells were treated with 0.1 μM M7, 0.05 μM M9, 0.1 μM yk-7, 0.1 μM yk-8-3, 50 μM yk-8-1, 0.1 μM M11, 0.01 μM M12, 0.005 μM M14, 0.005 μM M15, 0.005 μM M16, 1 μM M18, and 1 μM M19 at final concentrations, and incubated for 10 days at 37° C. and 5% CO2. This added amount is a concentration lower than the IC50 of the above compounds for L363 cells. After 10 days of incubation, cells were stained with anti-CD20 antibody, a B cell marker, and CD20 expression was measured using BD LSRFortessa. CCRF-SB cells were used as CD20-positive controls.
Results are shown in FIG. 29, FIG. 30, FIG. 31, and FIG. 32. The horizontal axis represents the expression level of CD20 and the vertical axis represents the number of cells.

phospho-IKK = assay: Immunoblotting of phospho-IKK in KMS-28BM cells; settings: 72 h, vs control, same concentrations as for phospho-NIK (0.005-100 μM)
Method: Immunoblotting was performed on KMS-28BM cells to investigate the inhibitory effect of each compound administration on NIK inhibition and the activation of IKK, NF-κB p52, and NF-κB p65, which are downstream signals of NIK. As a result, inhibition of NIK activation, inhibition of IKK activity, and inhibition of nuclear translocation of NF-κB p52 and NF-κB p65 were observed (FIG. 15 and FIG. 16).
As a control, compounds untreated KMS-28BM cells were seeded in 150 cm^2 flasks and incubated for 72 h at 37° C. and 5% CO2. KMS-28BM cells were seeded into 150 cm^2 flasks and pre-cultured for 24 h. After incubation, KMS-28BM cells were treated with […], 1 μM norathyriol, 0.5 μM M7 (formula (4)), 1 μM M8 (mangiferin 8a: listed in duplicate), 0.2 μM M9 (formula (5)), 5 μM yk-7 (formula (1)), 0.5 μM yk-8-3 (formula (3)) and 100 μM yk-8-1 (formula (2)) at final concentrations, and incubated for 72 h at 37° C. and 5% CO2. In addition, KMS-28BM cells were also treated with 0.5 μM M19 (formula (12)), 0.5 μM M18 (formula (11)), 0.005 μM M16 (formula (10)), […] (formula (9)), 0.005 μM M14 (formula (8)), 0.05 μM M12 (formula (7)) and […] (formula (6)) at the final concentrations, and incubated for 72 h at 37° C. and 5% CO2. Proteins were extracted from these cell suspensions with cell lysate and used as samples.
The nucleus and cytoplasmic substrate were separated from the cells using the ProteoExtract (registered trademark) Subcellular Proteome Extraction Kit from Merck Ltd. to extract the cytoplasmic and nuclear fractions.
After SDS-PAGE, each sample was transferred to a PVDF membrane and examined using anti-phospho-NIK, anti-NIK, anti-phospho-IKK, anti-IKK, anti-P-actin, anti-NF-κB p52 and anti-NF-κB p65 antibody, and anti-Lamin antibody.
The antibody species is indicated in the vertical direction. Specifically, for anti-phospho-NIK antibody, “Phospho-NIK” was used, for anti-NIK antibody, “NIK” was used, for anti-phospho-IKK antibody, “Phospho-IKK” was used, for anti-IKK antibody, “IKK” was used, for anti-p-actin antibody, “p-actin” was used, for anti-NF-κB p52 antibody, “NF-κB p52 nuclear” was used, for anti-NF-κB p65 antibody, “NF-κB p65 nuclear” was used, and for anti-Lamin antibody, “Lamin” was used.

[3] = tested on: L363 cells (myeloma cell line); assay: Cell death inducing effect on L363 cells, trypan blue staining
Method: as §1, with “L363” for “RPMI8226/B”, “(myeloma” for “(bortezomib-resistant myeloma”
as §2, §3

[4] = Homo sapiens, L-363, cell viability

Row | Molecule | IC50 ([1]; Homo sapiens, RPMI-8226) [nM] | IC50 ([2]; Homo sapiens) [nM] | CD20 expression level (CD20) | phospho-IKK band density (anti-phospho-IKK antibody) (phospho-IKK) | IC50 [3, 4] [nM] | IC50 [1] [nM] | IC50 [2] [nM] | IC50 ([3]; cell viability) [nM]
1 | CCCCC(=O)OC[C@H]1O[C@@H](c2c(O)cc3oc4cc(O)c(O)cc4c(=O)c3c2OC(=O)CCCC)[C@H](OC(=O)CCCC)[C@@H](OC(=O)CCCC)[C@@H]1OC(=O)CCCC [yk-8-3, 1,2′,3′,4′,6-penta-O-valerylmangiferin] | 231 | 865 | significantly increased | decrease in band density | 1400 | – | – | –
2 | CCCCO[C@@H]1[C@@H](OCCCC)[C@H](c2c(O)cc3oc4cc(O)c(O)cc4c(=O)c3c2O)O[C@H](COC(=O)CCC)[C@H]1OC(=O)CCC [Compound M16, 2′,3′-di-O-butyl-4′,6′-di-O-butyrylmangiferin] | 42 | 79 | significantly increased | decrease in band density | 21 | – | – | –
3 | CCCCC(=O)OC[C@H]1O[C@@H](c2c(OC(=O)CCCC)cc3oc4cc(OC(=O)CCCC)c(OC(=O)CCCC)cc4c(=O)c3c2OC(=O)CCCC)[C@H](OC(=O)CCCC)[C@@H](OC(=O)CCCC)[C@@H]1OC(=O)CCCC [yk-8-1, 1,3,2′,3′,4′,6,6′,7-octa-O-valerylmangiferin] | – | – | significantly increased | decrease in band density | – | 6430 | > 100000 | > 100000
4 | CC(C)(C)C(=O)OC[C@H]1O[C@@H](c2c(O)cc3oc4cc(O)c(O)cc4c(=O)c3c2O)[C@H](OC(=O)C(C)(C)C)[C@@H](OC(=O)C(C)(C)C)[C@@H]1OC(=O)C(C)(C)C [Compound M15, 2′,3′,4′,6′-tetra-O-pivaloylmangiferin] | 71 | 96 | significantly increased | decrease in band density | 91 | – | – | –
5 | CCCC(=O)OC[C@H]1O[C@@H](c2c(OC(=O)CCC)cc3oc4cc(OC(=O)CCC)c(OC(=O)CCC)cc4c(=O)c3c2OC(=O)CCC)[C@H](OC(=O)CCC)[C@@H](OC(=O)CCC)[C@@H]1OC(=O)CCC [Compound M11, 1,3,2′,3′,4′,6,6′,7-octa-O-butyrylmangiferin] | – | – | significantly increased | decrease in band density | – | 169 | 698 | 970
6 | O=c1c2cc(O)c(O)cc2oc2cc(O)cc(O)c12 [norathyriol, reference compound] | 632 | 8600 | – | decrease in band density | 5800 | – | – | –
7 | 1,2′,3′,4′,6-penta-O-propionylmangiferin [Compound 8a, reference compound] | – | – | – | decrease in band density | – | 892 | 4150 | 5600
8 | C=CCOc1cc(O)cc2oc3cc(O)c(O)cc3c(=O)c12 [Compound M19, 1-allyloxy-3,6,7-trihydroxy-9H-xanthen-9-one] | 758 | 8920 | significantly increased | decrease in band density | 7200 | – | – | –
9 | CCC(=O)OC[C@H]1O[C@@H](c2c(O)cc3oc4cc(O)c(O)cc4c(=O)c3c2O)[C@H](OC(=O)CC)[C@@H](OC(=O)CC)[C@@H]1OC(=O)CC [Compound M9, 2′,3′,4′,6′-tetra-O-propionylmangiferin] | 69 | 227 | significantly increased | decrease in band density | 620 | – | – | –
10 | O=c1c2cc(O)c(O)cc2oc2cc(O)cc(OCCO)c12 [Compound M18, 3,6,7-trihydroxy-1-(2-hydroxyethoxy)-9H-xanthen-9-one] | 486 | 5590 | significantly increased | decrease in band density | 4700 | – | – | –
11 | CCCCC(=O)OC[C@H]1O[C@@H](c2c(O)cc3oc4cc(O)c(O)cc4c(=O)c3c2O)[C@H](OC(=O)CCCC)[C@@H](OC(=O)CCCC)[C@@H]1OC(=O)CCCC [yk-7, 2′,3′,4′,6′-tetra-O-valerylmangiferin] | 79 | 383 | significantly increased | decrease in band density | 5700 | – | – | –
12 | CCCC(=O)OC[C@H]1O[C@@H](c2c(O)cc3oc4cc(O)c(O)cc4c(=O)c3c2OC(=O)CCC)[C@H](OC(=O)CCC)[C@@H](OC(=O)CCC)[C@@H]1OC(=O)CCC [Compound M12, 1,2′,3′,4′,6-penta-O-butyrylmangiferin] | 91 | 657 | significantly increased | decrease in band density | 89 | – | – | –
13 | CCC(=O)OC[C@H]1O[C@@H](c2c(OC(=O)CC)cc3oc4cc(OC(=O)CC)c(OC(=O)CC)cc4c(=O)c3c2OC(=O)CC)[C@H](OC(=O)CC)[C@@H](OC(=O)CC)[C@@H]1OC(=O)CC [Compound M7, 1,3,2′,3′,4′,6,6′,7-octa-O-propionylmangiferin] | 251 | 898 | significantly increased | decrease in band density | 5100 | – | – | –
